Test results taken from patent US11317626B2, “Forchlorfenuron mixtures and uses thereof” (Valent BioSciences LLC, priority 2018, dated 2022).

Legend:
Concord grape vines [1] = assay: Example 2: Concord grape vines greenhouse, forchlorfenuron and 15-0-0 fertilizer (Erger) study; type: in vivo; conditions: for Fresh Weight at Harvest: combined shoot fresh weight, 52 days after planting; for 50% BB: days after treatment to 50% bud break; for Average Number of Broken Nodes Per Plant at Harvest: harvest 52 days after planting
Description: To assess the ability of mixtures of the invention to promote and synchronize bud break these mixtures were applied to Concord grape vines and examined for bud break (initiation of growth) and subsequent shoot development. Specifically, dormant bare-rooted Concord grape vines were planted in pots containing Pro-Mix® BX potting soil (Pro-Mix is a registered trademark of and available from Premier Horticulture Ltd.) and pruned to five nodes on a single shoot of one-year-old wood. Nodes are regions on the shoot where leaves arise from the shoot and buds are present at the axis of the shoot:leaf interface. The bud found at the shoot:leaf interface develops into the vines new shoot growth. Aqueous solutions of forchlorfenuron, HC, 15-0-0 fertilizer, 17-0-0 fertilizer, and mixtures thereof were each applied individually or sequentially or co-applied to the first-year wood of separate Concord grape vines. […] Percent bud break is determined by the number of plants that have at least one bud broken divided by the total number of plants per treatment times 100. […] New shoot growth is the growth arising from the dormant buds not including the woody growth that was planted and gave rise to the new growth.
(§1) To determine if the mixtures provided unexpected results, the observed combined efficacy (“OCE”) was divided by the expected combined efficacy (“ECE”) wherein the expected ECE is calculated by the Abbott method: ECE=A+B−(AB/100), • wherein ECE is the expected combined efficacy and in which A and B are the speed of bud break relative to control, the number of buds broken per plant relative to control, shoot length relative to control or shoot weight relative to control given by the single active ingredients. If the ratio between the OCE of the mixture and the ECE of the mixture is greater than 1, then greater than expected interactions are present in the mixture. (Gisi, Synergistic Interaction of Fungicides in Mixtures, The American Phytopathological Society, 86:11, 1273-1279,1996). Results
The experiment from Example 1 was repeated with varying quantities of forchlorfenuron and fertilizers in a greenhouse experiment.

Concord grape vines [2] = assay: Example 1: bud break and shoot growth of potted Concord grape vines in greenhouse; type: in vivo; conditions: for Broken Buds/Plant / FW/Broken Bud: 51 days post-treatment; for FW/Plant: combined shoot fresh weight at 51 DAT; for 50% BB: days from application to 50% of the plants showing at least one bud broken; for 0-50% BB: days from bud break on the first plant to 50% of the plants with bud break, synchrony
Description: An aqueous 50% hydrogen cyanamide solution (Sigma-Aldrich, St. Louis, Mo. USA) was used as the source of hydrogen cyanamide (“HC”). The commercial product, Dormex® contains 50% hydrogen cyanamide (w/v) in an aqueous base.
Erger® was used as the source of 15-0-0 fertilizer. Erger® contains 15% total nitrogen as 3.1% ammoniacal nitrogen, 5.8% nitrate nitrogen, 6.1% urea nitrogen and 3.3% calcium derived from a mixture of ammonium nitrate, calcium nitrate and urea. Erger® is always used in combination with either 20% (w/v) Ca(NO3)2 or Activ Erger®. In the following examples, 15-0-0 fertilizer was applied at a rate of 208,340 ppm calcium nitrate, 15,060 ppm nitrogen nitrate and 15,660 ppm urea or 239,060 ppm total.
CAN-17 was used as the 17-0-0 fertilizer. CAN-17 contains 17% total nitrogen as 4.6% ammonium nitrogen and 11.6% nitrate nitrogen and 1.3% urea nitrogen and 8.8% calcium derived from ammonium nitrate and calcium nitrate. CAN-17 is available from J. R. Simplot Company (Boise, Id., USA). In the following examples, 17-0-0 fertilizer was applied at a rate of 118,200 ppm calcium nitrate and 78,900 ppm nitrogen nitrate or 197,100 ppm total. See, Table 1 below, for ratios of forchlorfenuron (“CPPU”) to fertilizer that were used in the following examples.
To assess the ability of mixtures of the invention to promote and synchronize bud break these mixtures were applied to Concord grape vines and examined for bud break (initiation of growth) and subsequent shoot development. Specifically, dormant bare-rooted Concord grape vines were planted in pots containing Pro-Mix® BX potting soil (Pro-Mix is a registered trademark of and available from Premier Horticulture Ltd.) and pruned to five nodes on a single shoot of one-year-old wood. Nodes are regions on the shoot where leaves arise from the shoot and buds are present at the axis of the shoot:leaf interface. The bud found at the shoot:leaf interface develops into the vines new shoot growth. Aqueous solutions of forchlorfenuron, HC, 15-0-0 fertilizer, 17-0-0 fertilizer, and mixtures thereof were each applied individually or sequentially or co-applied to the first-year wood of separate Concord grape vines. Plants were grown in a heated greenhouse for 49 days and evaluated for percent of vines showing bud break, periodically between seven days after application and the conclusion of the experiment. Percent bud break is determined by the number of plants that have at least one bud broken divided by the total number of plants per treatment times 100. At 51 days after treatment (“DAT”), the plants were sacrificed and measured for total number of flower clusters, total new shoot length, longest new shoot, combined new shoot fresh weight. New shoot growth is the growth arising from the dormant buds not including the woody growth that was planted and gave rise to the new growth.
as §1

## O=C(Nc1ccccc1)Nc1ccnc(Cl)c1 [CPPU, N-(2-Chloro-4-pyridyl)-N′-phenylurea]
Concord grape vines [1]; listed as CPPU 300 ppm
  Fresh Weight at Harvest: 18.04 grams
  50% BB: 26 days
  Average Number of Broken Nodes Per Plant at Harvest: 1.25
Concord grape vines [1]; listed as CPPU 600 ppm
  Fresh Weight at Harvest: 18.54 grams
  50% BB: 31 days
  Average Number of Broken Nodes Per Plant at Harvest: 1.88
Concord grape vines [1]; listed as CPPU 1000 ppm
  Fresh Weight at Harvest: 29.13 grams
  50% BB: 24 days
  Average Number of Broken Nodes Per Plant at Harvest: 2.63
Concord grape vines [2]; 31 days after treatment, plants with at least one bud showing a green shoot emerging, listed as CPPU 100 ppm
  Percentage of Concord Grape Vines with Dormancy Relieved: 25%
Concord grape vines [2]; 31 days after treatment, plants with at least one bud showing a green shoot emerging, listed as CPPU 300 ppm
  Percentage of Concord Grape Vines with Dormancy Relieved: 12.5%
Concord grape vines [2]; 31 days after treatment, plants with at least one bud showing a green shoot emerging, listed as CPPU 1000 ppm
  Percentage of Concord Grape Vines with Dormancy Relieved: 37.5%
Concord grape vines [2]; 34 days after treatment, listed as CPPU 100 ppm
  Percentage of Concord Grape Vines with Dormancy Relieved: 50%
Concord grape vines [2]; 34 days after treatment, listed as CPPU 300 ppm
  Percentage of Concord Grape Vines with Dormancy Relieved: 37.5%
Concord grape vines [2]; 34 days after treatment, listed as CPPU 1000 ppm
  Percentage of Concord Grape Vines with Dormancy Relieved: 62.5%
Concord grape vines [2]; 36 days after treatment, listed as CPPU 100 ppm
  Percentage of Concord Grape Vines with Dormancy Relieved: 50%
Concord grape vines [2]; 36 days after treatment, listed as CPPU 300 ppm
  Percentage of Concord Grape Vines with Dormancy Relieved: 50%
Concord grape vines [2]; 36 days after treatment, listed as CPPU 1000 ppm
  Percentage of Concord Grape Vines with Dormancy Relieved: 62.5%
Concord grape vines [2]; 38 days after treatment, listed as CPPU 100 ppm
  Percentage of Concord Grape Vines with Dormancy Relieved: 50%
Concord grape vines [2]; 38 days after treatment, listed as CPPU 300 ppm
  Percentage of Concord Grape Vines with Dormancy Relieved: 50%
Concord grape vines [2]; 38 days after treatment, listed as CPPU 1000 ppm
  Percentage of Concord Grape Vines with Dormancy Relieved: 75%
Concord grape vines [2]; 43 days after treatment, listed as CPPU 100 ppm
  Percentage of Concord Grape Vines with Dormancy Relieved: 75%
Concord grape vines [2]; 43 days after treatment, listed as CPPU 300 ppm
  Percentage of Concord Grape Vines with Dormancy Relieved: 62.5%
Concord grape vines [2]; 43 days after treatment, listed as CPPU 1000 ppm
  Percentage of Concord Grape Vines with Dormancy Relieved: 87.5%
Concord grape vines [2]; 45 days after treatment, listed as CPPU 100 ppm
  Percentage of Concord Grape Vines with Dormancy Relieved: 75%
Concord grape vines [2]; 45 days after treatment, listed as CPPU 300 ppm
  Percentage of Concord Grape Vines with Dormancy Relieved: 62.5%
Concord grape vines [2]; 45 days after treatment, listed as CPPU 1000 ppm
  Percentage of Concord Grape Vines with Dormancy Relieved: 87.5%
Concord grape vines [2]; 51 days after treatment, listed as CPPU 100 ppm
  Percentage of Concord Grape Vines with Dormancy Relieved: 87.5%
Concord grape vines [2]; 51 days after treatment, listed as CPPU 300 ppm
  Percentage of Concord Grape Vines with Dormancy Relieved: 62.5%
Concord grape vines [2]; 51 days after treatment, listed as CPPU 1000 ppm
  Percentage of Concord Grape Vines with Dormancy Relieved: 87.5%
Concord grape vines [2]; listed as CPPU 100 ppm
  Broken Buds/Plant: 1.71
  FW/Broken Bud: 4.73 grams
  FW/Plant: 8.11 grams
  50% BB: 34 days
  0-50% BB: 10 days
Concord grape vines [2]; listed as CPPU 300 ppm
  Broken Buds/Plant: 2.00
  FW/Broken Bud: 4.69 grams
  FW/Plant: 9.39 grams
  50% BB: 36 days
  0-50% BB: 7 days
Concord grape vines [2]; listed as CPPU 1000 ppm
  Broken Buds/Plant: 1.29
  FW/Broken Bud: 9.51 grams
  FW/Plant: 12.22 grams
  50% BB: 34 days
  0-50% BB: 14 days
